Consider one compound from paper PMC12041489 (Scientific Reports, 2025).

Usually IC50 stands for the concentration that gives 50% inhibition. In general, Ki refers to the equilibrium dissociation constant of an inhibitor or competing ligand from its target.

Entries after “also recorded” stand apart in the source; their conditions may differ.

One series addresses tyrosinase (Agaricus bisporus, UniProt C7FF04). Kind of series: Fluorescence quenching of tyrosinase. In kind it is binding, mushroom. The following applies: for Kq / Ksv: λex 280 nm.
A short description of series [1]: ABTS radical cation scavenging activity assay. The note with it: read-out: ABTS radical scavenging IC50.
The subject of the next series is fresh-cut apples. In words: Anti-browning experiment on fresh-cut apples. The note with it: stored at 5 °C for 4 days. Set-up: species or system Fuji apples.
For series [2], the target named is T1, mushroom tyrosinase (Agaricus bisporus, UniProt C7FF04). In words: biochemical.
T1 sequence (C7FF04 1-392 limits assumed): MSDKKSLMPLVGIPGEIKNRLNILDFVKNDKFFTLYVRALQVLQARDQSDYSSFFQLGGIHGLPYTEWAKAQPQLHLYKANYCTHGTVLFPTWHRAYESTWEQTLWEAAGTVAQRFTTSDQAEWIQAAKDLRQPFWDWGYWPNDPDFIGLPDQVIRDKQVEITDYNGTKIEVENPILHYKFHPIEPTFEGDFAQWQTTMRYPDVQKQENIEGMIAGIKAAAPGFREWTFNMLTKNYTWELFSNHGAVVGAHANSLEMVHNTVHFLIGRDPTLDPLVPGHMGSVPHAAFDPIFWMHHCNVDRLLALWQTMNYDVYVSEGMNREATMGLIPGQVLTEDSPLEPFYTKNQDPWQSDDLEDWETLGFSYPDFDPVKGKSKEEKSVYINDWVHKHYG
Series [3] deals with T1, mushroom tyrosinase. Kind of series: Tyrosinase kinetic analysis. It is filed as biochemical.
Series [4] can be described thus: DPPH free radical scavenging activity assay. The note with it: read-out: DPPH radical scavenging IC50. A general note: The DPPH test is a chemical assay of radical scavenging.
Series [5] has as its system human umbilical vein endothelial cells (HUVEC). Kind of series: MTT assay for cell viability. The note with it: 24-h treatment, up to 32 µM. In kind it is cell-based. In general terms: Tetrazolium dyes change colour on reduction, which living cells bring about.

Chain of tyrosinase (C7FF04 1-392 limits assumed): as above

On to `COc1ccc(C(C)=O)c(OCc2cn(Cc3cc(=O)c(O)co3)nn2)c1` [Compound 13t, 2-((4-((2-acetyl-5-methoxyphenoxy)methyl)-1H-1,2,3-triazol-1-yl)methyl)-5-hydroxy-4H-pyran-4-one], for which the predominant quenching mechanism entry on tyrosinase (Stern-Volmer plots at 298, 303 and 310 K) is on record as “dynamic quenching”. Further, the Kq at tyrosinase (T 298 K) came to 1.952e+12 M⁻¹ s⁻¹; on tyrosinase (T 303 K), 2.478e+12 M⁻¹ s⁻¹; on tyrosinase (T 310 K), 2.823e+12 M⁻¹ s⁻¹. Also, the Ksv was 0.01952 L/µmol on tyrosinase (T 298 K), 0.02478 L/µmol at tyrosinase (T 303 K) and 0.02823 L/µmol on tyrosinase (T 310 K). Besides, the IC50 in series [1] worked out at 45.64 ± 0.25 µM; against mushroom tyrosinase [2] it was 1.363 ± 0.003 µM; in series [4], 57.9 ± 0.28 µM. Moreover, the “L* value of fresh-cut apples” value in the series on fresh-cut apples (25 µM) stood at 65.91; in the series with fresh-cut apples (50 µM), 66.59; with fresh-cut apples (100 µM), 67.87. The compound also gave an inhibition constant Ki at mushroom tyrosinase [3] of 0.365 µM. Moreover, the inhibition type result on mushroom tyrosinase [3] (Lineweaver–Burk double reciprocal plots) was “mixed-type inhibitor”. In series [5], the “toxicity to HUVEC (cell viability)” value is listed as “no discernible toxicity; also recorded: no evident toxicity”.
